Calls of active or inactive are those of the source.
Key:
Cytochrome P450 2C19 = Cytochrome P450 2C19 (Homo sapiens, UniProt P33261); assay: Cytochrome panel assay with activity outcomes. Panel member name: p450-cyp2c19 Compounds with AC50 equal or less than 10 uM are considered active; assay type: functional; settings: read-out: AC50
Cytochrome P450 3A4 [1] = molecular target: T1, Cytochrome P450 3A4 (Homo sapiens, UniProt P08684);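 also: CYP3A4 tested as one member of a cytochrome P450 panel screen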
T1 sequence (P08684 whole entry): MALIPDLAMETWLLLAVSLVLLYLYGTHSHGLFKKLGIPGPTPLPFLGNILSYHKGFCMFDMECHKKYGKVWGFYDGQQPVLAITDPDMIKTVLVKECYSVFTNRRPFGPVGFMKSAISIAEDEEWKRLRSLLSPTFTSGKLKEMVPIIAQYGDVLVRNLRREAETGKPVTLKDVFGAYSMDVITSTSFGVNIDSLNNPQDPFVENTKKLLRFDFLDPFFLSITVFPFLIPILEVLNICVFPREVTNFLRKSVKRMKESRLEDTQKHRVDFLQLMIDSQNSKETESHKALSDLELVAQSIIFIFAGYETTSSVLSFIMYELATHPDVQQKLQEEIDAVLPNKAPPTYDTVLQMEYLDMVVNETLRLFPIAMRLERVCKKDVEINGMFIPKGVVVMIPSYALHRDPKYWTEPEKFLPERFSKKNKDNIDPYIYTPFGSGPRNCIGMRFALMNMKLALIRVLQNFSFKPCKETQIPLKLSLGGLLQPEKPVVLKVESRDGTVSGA

Cytochrome P450 1A2 = molecular target: T2, Cytochrome P450 1A2 (Homo sapiens, UniProt P05177);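 also: PubChem cytochrome P450 panel assay, CYP1A2 panel member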
T2 sequence (P05177 whole entry): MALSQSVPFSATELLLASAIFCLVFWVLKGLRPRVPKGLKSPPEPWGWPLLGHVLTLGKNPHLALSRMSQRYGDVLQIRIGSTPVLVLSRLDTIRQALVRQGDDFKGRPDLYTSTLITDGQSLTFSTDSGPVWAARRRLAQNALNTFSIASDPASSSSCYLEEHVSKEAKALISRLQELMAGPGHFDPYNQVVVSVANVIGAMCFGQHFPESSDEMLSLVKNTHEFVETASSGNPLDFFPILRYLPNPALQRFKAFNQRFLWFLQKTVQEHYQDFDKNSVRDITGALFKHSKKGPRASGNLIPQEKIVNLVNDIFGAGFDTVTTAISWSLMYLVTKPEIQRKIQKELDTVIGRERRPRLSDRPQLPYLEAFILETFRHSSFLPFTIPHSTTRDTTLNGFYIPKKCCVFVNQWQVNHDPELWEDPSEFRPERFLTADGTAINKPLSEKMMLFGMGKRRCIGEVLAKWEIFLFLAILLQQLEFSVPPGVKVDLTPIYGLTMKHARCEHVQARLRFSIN

Cytochrome P450 2D6 = Cytochrome P450 2D6 (Homo sapiens, UniProt P10635);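 also: CYP2D6 member of a cytochrome P450 panel assay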
Chain of Cytochrome P450 2D6 (P10635 whole entry): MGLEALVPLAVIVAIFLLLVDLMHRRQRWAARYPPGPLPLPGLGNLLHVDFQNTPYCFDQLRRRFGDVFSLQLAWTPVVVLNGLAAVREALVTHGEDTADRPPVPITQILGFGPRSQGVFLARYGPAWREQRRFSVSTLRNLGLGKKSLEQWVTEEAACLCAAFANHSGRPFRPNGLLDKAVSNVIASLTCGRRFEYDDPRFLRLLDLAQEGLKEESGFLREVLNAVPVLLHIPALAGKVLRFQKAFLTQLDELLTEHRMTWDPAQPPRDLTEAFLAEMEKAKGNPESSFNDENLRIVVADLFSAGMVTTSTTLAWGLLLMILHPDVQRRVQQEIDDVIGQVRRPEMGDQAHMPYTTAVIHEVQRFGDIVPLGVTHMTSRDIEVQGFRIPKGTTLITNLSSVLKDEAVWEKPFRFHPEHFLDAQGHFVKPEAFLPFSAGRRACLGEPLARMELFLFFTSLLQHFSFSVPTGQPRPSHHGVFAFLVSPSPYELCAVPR

[2] = molecular target: 5-hydroxytryptamine receptor 5A (Homo sapiens, UniProt P47898); assay: Counterscreen for agonists of OPRM1-OPRD1 heterodimerization: luminescence-based cell-based high throughput dose response assay to identify agonists of 5-hydroxytryptamine (serotonin) 5A receptor (HTR5A). [Related pubchem assays (depositor defined):AID504326, AID504355, AID504692, AID504904, AID504905]; assay type: functional
Chain of 5-hydroxytryptamine receptor 5A (P47898 whole entry): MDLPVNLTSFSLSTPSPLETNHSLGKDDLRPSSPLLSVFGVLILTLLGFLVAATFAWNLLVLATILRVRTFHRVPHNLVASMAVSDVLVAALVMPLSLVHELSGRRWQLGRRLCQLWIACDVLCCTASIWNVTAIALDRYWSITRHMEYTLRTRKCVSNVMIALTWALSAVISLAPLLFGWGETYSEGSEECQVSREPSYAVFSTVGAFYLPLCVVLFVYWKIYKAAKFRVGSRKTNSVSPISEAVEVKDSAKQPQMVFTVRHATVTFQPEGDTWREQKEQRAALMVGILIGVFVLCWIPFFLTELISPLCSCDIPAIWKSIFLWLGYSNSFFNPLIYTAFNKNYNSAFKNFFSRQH

[3] = molecular target: Delta-type opioid receptor (Homo sapiens, UniProt P41143); assay: Counterscreen for agonists of heterodimerization of the mu 1 (OPRM1) and delta 1 (OPRD1) opioid receptors: Luminescence-based cell-based high throughput dose response assay to identify agonists of OPRD1 homodimerization. [Related pubchem assays (depositor defined):AID504326, AID504355, AID504692, AID504904, AID504905]; assay type: functional
Chain of Delta-type opioid receptor (P41143 whole entry): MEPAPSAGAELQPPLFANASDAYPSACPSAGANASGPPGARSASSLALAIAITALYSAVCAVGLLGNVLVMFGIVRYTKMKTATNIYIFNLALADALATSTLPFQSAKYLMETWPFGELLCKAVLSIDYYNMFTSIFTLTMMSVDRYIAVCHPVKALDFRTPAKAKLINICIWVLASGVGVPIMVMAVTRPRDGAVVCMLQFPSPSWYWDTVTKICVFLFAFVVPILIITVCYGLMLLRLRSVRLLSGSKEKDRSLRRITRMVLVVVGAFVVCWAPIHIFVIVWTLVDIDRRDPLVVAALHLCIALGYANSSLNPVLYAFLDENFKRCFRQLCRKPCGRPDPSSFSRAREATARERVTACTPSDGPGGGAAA

Mu-type opioid receptor = Mu-type opioid receptor (Homo sapiens, UniProt P35372); assay: Counterscreen for agonists of heterodimerization of the mu 1 (OPRM1) and delta 1 (OPRD1) opioid receptors: Luminescence-based cell-based high throughput dose response assay to identify agonists of OPRM1 homodimerization.; assay type: functional;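 also: U2OS cells expressing OPRM1 and beta-arrestin as split beta-galactosidase partners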
Chain of Mu-type opioid receptor (P35372 whole entry): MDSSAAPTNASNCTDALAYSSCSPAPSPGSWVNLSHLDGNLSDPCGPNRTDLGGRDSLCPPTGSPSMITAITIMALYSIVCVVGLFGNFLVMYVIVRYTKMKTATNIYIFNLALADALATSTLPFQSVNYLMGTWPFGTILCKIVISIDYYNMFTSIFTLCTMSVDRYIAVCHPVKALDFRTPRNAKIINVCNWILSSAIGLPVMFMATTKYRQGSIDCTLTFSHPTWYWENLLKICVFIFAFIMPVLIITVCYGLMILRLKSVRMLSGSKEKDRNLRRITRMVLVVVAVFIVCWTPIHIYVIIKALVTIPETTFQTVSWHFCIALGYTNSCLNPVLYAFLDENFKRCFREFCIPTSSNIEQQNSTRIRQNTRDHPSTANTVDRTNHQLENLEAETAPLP

Escherichia coli = assay: microbe, parasite or virus in culture
[4] = molecular target: Nucleotide-binding oligomerization domain-containing protein 2 (Homo sapiens, UniProt Q9HC29); assay: NOD2 signaling inhibitors, cell-based, luminescence, uHTS, HEK293 (AID 1566); assay type: functional
Chain of Nucleotide-binding oligomerization domain-containing protein 2 (Q9HC29 whole entry, the tested form may be a part): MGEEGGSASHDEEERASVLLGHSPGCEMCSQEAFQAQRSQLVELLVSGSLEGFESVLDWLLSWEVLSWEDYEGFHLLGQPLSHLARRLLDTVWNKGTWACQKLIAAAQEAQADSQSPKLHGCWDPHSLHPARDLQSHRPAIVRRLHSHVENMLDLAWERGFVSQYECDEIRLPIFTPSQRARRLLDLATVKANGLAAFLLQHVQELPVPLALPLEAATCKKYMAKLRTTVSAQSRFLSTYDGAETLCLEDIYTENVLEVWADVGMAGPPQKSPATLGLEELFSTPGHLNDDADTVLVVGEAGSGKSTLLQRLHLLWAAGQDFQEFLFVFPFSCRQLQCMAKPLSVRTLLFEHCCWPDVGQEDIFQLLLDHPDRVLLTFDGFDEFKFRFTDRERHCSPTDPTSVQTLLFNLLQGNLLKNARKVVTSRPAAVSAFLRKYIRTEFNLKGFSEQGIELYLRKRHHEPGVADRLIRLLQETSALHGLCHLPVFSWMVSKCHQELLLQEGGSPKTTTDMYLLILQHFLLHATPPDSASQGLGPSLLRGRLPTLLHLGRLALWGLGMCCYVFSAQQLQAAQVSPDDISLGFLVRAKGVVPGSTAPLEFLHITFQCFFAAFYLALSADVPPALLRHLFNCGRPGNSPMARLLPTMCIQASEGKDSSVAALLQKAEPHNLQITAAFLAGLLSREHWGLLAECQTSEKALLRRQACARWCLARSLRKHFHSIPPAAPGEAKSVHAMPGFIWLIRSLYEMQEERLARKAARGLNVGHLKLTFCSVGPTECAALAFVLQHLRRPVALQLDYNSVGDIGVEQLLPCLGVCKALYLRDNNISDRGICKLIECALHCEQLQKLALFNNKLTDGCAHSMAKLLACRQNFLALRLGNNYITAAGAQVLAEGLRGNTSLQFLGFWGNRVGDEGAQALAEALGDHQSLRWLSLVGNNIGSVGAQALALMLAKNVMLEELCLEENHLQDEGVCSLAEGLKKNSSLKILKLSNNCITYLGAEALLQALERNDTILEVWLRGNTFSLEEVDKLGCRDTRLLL

HEK293 [5] = assay: cells; assay type: functional, cell-based; settings: Homo sapiens
[6] = inhibitors of SNCA 5'UTR-driven reporter translation, confirmation, H4 neuroglioma cells, luminescence (AID 1988); assay type: functional, cell-based
HEK293 [7] = assay: NOD2 signaling inhibitors in MDP-stimulated cells, cell-based, uHTS, luminescence (AID 2001); assay type: functional; settings: Homo sapiens
[8] = molecular target: T3, Nucleotide-binding oligomerization domain-containing protein 1 (Homo sapiens, UniProt Q9Y239); assay: NOD1 signaling inhibitors, SAR follow-up, revised (AID 2333); assay type: functional
T3 sequence (Q9Y239 whole entry): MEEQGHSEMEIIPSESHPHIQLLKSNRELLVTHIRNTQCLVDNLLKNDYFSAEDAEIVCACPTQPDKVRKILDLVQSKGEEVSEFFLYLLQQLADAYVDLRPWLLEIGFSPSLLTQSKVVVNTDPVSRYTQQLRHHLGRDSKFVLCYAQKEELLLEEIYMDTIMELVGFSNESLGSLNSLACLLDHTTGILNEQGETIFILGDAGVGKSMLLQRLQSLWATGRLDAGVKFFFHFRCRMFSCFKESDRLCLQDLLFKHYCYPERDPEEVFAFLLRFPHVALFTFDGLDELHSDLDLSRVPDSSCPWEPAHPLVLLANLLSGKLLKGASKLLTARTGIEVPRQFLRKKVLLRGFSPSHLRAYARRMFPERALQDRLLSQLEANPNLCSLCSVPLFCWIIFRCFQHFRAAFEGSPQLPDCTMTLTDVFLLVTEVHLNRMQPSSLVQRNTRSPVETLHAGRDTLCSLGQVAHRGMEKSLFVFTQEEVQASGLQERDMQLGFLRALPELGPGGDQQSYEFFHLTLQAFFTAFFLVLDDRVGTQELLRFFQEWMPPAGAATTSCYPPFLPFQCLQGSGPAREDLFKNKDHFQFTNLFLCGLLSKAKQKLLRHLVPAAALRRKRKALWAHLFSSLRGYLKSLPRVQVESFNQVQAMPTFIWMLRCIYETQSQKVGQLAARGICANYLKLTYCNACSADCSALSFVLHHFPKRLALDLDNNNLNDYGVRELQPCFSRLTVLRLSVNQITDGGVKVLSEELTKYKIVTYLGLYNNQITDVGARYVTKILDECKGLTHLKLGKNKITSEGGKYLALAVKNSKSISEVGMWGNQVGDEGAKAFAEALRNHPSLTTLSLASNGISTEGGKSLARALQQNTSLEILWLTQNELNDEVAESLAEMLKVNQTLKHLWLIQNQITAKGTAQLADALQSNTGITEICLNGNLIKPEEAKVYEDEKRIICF

HEK293 [9] = assay: cells; assay type: functional, cell-based; settings: Homo sapiens; remark: listed apart in the source
[10] = Luminescence Cell-Based Dose Response HTS to Identify Inhibitors of 5'UTR Stem-Loop Driven Prion Protein mRNA Translation in H4 Neuroglioblastoma Cells. [Related pubchem assays: 1827 (Project Summary), 1813 (Primary HTS)]; assay type: functional
Tumor necrosis factor = Tumor necrosis factor (Homo sapiens, UniProt P01375); assay: TNFa-triggered NF-kB activation inhibitors, SAR follow-up, cell-based, revised (AID 2337); assay type: functional
Chain of Tumor necrosis factor (P01375 whole entry): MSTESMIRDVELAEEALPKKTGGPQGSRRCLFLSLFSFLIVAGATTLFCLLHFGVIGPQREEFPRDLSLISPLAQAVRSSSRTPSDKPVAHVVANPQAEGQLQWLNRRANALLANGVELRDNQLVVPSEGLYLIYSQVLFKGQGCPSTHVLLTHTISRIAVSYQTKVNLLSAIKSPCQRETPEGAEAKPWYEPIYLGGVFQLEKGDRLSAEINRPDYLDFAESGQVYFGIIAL

HEK293 [11] = assay: NOD1 signaling inhibitors, primary screen, cell-based, luminescence, uHTS (AID 1578); assay type: functional; settings: Homo sapiens
[12] = inhibitors of firefly luciferase expression or activity, dose response, H4 neuroglioma cells, luminescence (AID 1990); assay type: functional, cell-based
HEK293 [13] = assay: cells; settings: Homo sapiens
HEK293 [14] = assay: cells; assay type: functional, cell-based; settings: Homo sapiens; remark: listed apart in the source
Cytochrome P450 3A4 [15] = molecular target: T1, Cytochrome P450 3A4; remark: listed apart in the source

Chain of Cytochrome P450 2C19 (P33261 whole entry): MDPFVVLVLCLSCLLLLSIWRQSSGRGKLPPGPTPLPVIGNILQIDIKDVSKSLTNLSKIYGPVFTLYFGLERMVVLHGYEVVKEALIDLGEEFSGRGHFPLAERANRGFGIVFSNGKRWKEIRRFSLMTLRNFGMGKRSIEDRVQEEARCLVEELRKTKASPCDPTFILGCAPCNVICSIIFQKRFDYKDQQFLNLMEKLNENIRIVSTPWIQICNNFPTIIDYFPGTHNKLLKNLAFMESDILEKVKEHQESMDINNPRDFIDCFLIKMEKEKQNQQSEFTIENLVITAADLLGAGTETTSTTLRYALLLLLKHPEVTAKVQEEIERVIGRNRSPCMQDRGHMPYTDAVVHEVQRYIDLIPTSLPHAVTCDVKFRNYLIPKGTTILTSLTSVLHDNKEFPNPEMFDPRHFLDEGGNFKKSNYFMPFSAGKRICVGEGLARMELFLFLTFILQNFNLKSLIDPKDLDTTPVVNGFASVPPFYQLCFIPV

For `CC(C)n1nnc2ccccc2c1=O`, the AC50 (Cytochrome P450 2C19) was 39.8 µM (inconclusive), the AC50 (Cytochrome P450 3A4 [1]) was “inconclusive” and the AC50 (Cytochrome P450 1A2) was 11.2 µM (inconclusive). The AC50 (Cytochrome P450 2D6) was “inconclusive”.

With `CN(C)C(CNC(=O)c1ccc(Br)cc1)c1ccco1` (centres undefined) the EC50 [2] was > 92.5 µM (inactive), the EC50 [3] was > 92.5 µM (inactive) and the EC50 (Mu-type opioid receptor) was > 92.5 µM (inactive).

For `CCOc1ccc(Nc2nc(O)c3c(n2)CCCC3)cc1`, the AC50 (Escherichia coli) was 31.7 µM (active).

For `COc1cc(C(=O)Nc2sc3c(c2C(=O)O)CCC(C)C3)cc(OC)c1OC` (centres undefined), the EC50 [4] was 2.24 µM (active), the IC50 (HEK293 [5]) was > 20 µM (inactive) and the EC50 [6] was 12.8 µM (active). For the same molecule, the IC50 (HEK293 [7]) was 9.76 µM (active), the IC50 [8] was 5.19 µM (active) and the IC50 (HEK293 [9]) was > 20 µM (inactive). The EC50 [10] was > 120 µM (not active), the IC50 (Tumor necrosis factor) was 7.41 µM (active) and the EC50 (HEK293 [11]) was 4.16 µM (active). For the same molecule, the EC50 [12] was > 120 µM (not active), the IC50 (HEK293 [13]) was > 20 µM (inactive) and the IC50 (HEK293 [14]) was > 20 µM (inactive).

With `CCOc1cc(CNCCO)c(Cl)cc1OCC(=O)NCCc1ccccc1` the AC50 (Cytochrome P450 2D6) was “inconclusive”.

In the case of `COC(=O)c1cc(OC)c(OC)cc1N=C(S)N1CCN(C)CC1`, the AC50 (Cytochrome P450 1A2) was 11.2 µM (inconclusive), the AC50 (Cytochrome P450 2D6) was “inconclusive” and the AC50 (Cytochrome P450 3A4 [15]) was 14.1 µM (inconclusive).

In the case of `Cc1cccc(NC(=S)NC(=O)CCc2ccccc2)c1`, the EC50 [2] was > 92.5 µM (inactive), the EC50 [3] was > 92.5 µM (inactive) and the EC50 (Mu-type opioid receptor) was > 92.5 µM (inactive). The AC50 (Cytochrome P450 3A4 [15]) was 25.1 µM (inconclusive).

With `COC(=O)c1ccc(CNC(=O)C2CCC(=O)N(Cc3ccccn3)C2)cc1` (centres undefined) the AC50 (Escherichia coli) was 131 µM (active).
